In this assay the test system is CHO DG44 cells. Kind of assay: Transient IgG expression, batch titer by ELISA, VPA concentration series (Example 1). The class given is cell-based, Chinese Hamster. To be noted: for Fold increase over control / Batch titer: IgG, day 5 after transfection; for Batch titer: 37° C. How it is done:
10 million suspension-adapted HEK293E cells were resuspended in 0.5 ml of Ex-Cell 293 HEK 293 serum-free medium with 4 mmol/l L-glutamine (Cat. No. 14571C-1000 M; Lot No. 6A0093; SAFC Biosciences, Lenexa, Kans., USA, “Ex-Cell” medium; note: “Ex-Cell” medium-as used herein-refers to a medium comprising 4 mmol/l L-glutamine) in a 50-ml filter tube each (TPP AG, Trasadingen, Switzerland; Cat. No. 87050, Lot 20050174). In a separate set, 10 million suspension-adapted CHO DG44 cells were resuspended in 0.5 ml of ProCHO5 serum-free medium with 4 mmol/[…] hypoxanthine and 0.194 g/l thymidine (BioWhittaker (Lonza), Belgium; Cat. No. BE12-[…]; Lot No. 7 MB0040; “ProCHO5” medium; note: “ProCHO5” medium-as used herein-refers to a medium comprising 4 mmol/[…] hypoxanthine and 0.194 g/l thymidine) in a 50-ml filter tube each (TPP AG, Trasadingen, Switzerland; Cat. No. 87050, Lot 20050174). Then 12.5 μg plasmid DNA at a concentration of 1 μg/μl was added in each tube with the following composition 50% (6.25 μg) p-LC (SEQ ID NO: 1) 50% (6.25 μg) p-HC (SEQ ID NO: 3). Plasmid p-LC comprises the genetic information for the production of the light chain of an IgG antibody, plasmid p-HC comprises the genetic information for the production of the heavy chain of an IgG antibody. The particular vector constructs used in the present invention can also be obtained from the inventors. The inventors can be contacted via e-mail at […]. Moreover, commercial services do exist that produce any desired nucleotide sequence even comprising several kilobase pairs including complete expression cassettes in plasmid backgrounds (e.g., Invitrogen, Carlsbad, USA; Geneart, Germany.) Thus, providing the genetic sequence information of the plasmids should enable one of ordinary skill in the art to order the plasmids of the present invention at one of the commercial services listed. After shortly mixing the DNA with the cells by gentle shaking, 25 μg of 25-kd linear polyethyleneimine (“PEI”; Polysciences, Eppelheim, Germany; [2]) were added at a concentration of 1 μg/μl to each of the tubes. After shortly mixing by gentle shaking, the filter tubes containing the cells together with the DNA and PEI were transferred into an orbital shaker (Kühner Shaker Cabinet ISF-4-W, “Kühner shaker”, Kühner AG, Birsfelden, Switzerland), and the cells were incubated for 4 hours at 37° C. in a 5% CO2 atmosphere under shaking at 180 rpm. After that time, 4.5 ml of Ex-Cell medium were added to each of the filter tubes containing HEK 293 cells and 4.5 ml of Pro-CHO5 were added to each of the filter tubes containing CHO DG44 cells. Then, valproic acid was added to each of the tubes at the corresponding final concentration. The cells then were returned into the Kühner shaker and incubated at 37° C. in a 5% CO2 atmosphere under shaking at 180 rpm. […] The ELISA was performed as published in prior art. In short, Goat anti-human kappa light chain IgG (Biosource) was used for coating the ELISA-plates, and with AP-conjugated goat anti-human gamma chain IgG (Biosource) the synthesized IgG1 was detected. NPP was used as a substrate for the alkaline phosphatase. Absorption was measured at 405 nm against 490 nm using a microplate reader (SPECTRAmaxTM340; Molecular Devices, Palo Alto, Calif., USA).

As to `CCCC(CCC)C(=O)O` [VPA, valproic acid], the “Fold increase over control” value is given as 1 fold (0.05 mmol/l final VPA); 1.3 fold (0.1 mmol/l final VPA); 1.8 fold (0.2 mmol/l final VPA); 2.1 fold (0.5 mmol/l final VPA); 1.9 fold (1 mmol/l final VPA); 1.3 fold (2 mmol/l final VPA). Further, the “Fold increase over control” value (3 mmol/l final VPA) was 1.0 fold. The Batch titer is 7.4 ± 1.1 mg/L (0.05 mmol/l final VPA); 10.0 ± 1.5 mg/L (0.1 mmol/l final VPA); 13.7 ± 1.2 mg/L (0.2 mmol/l final VPA); 16.3 ± 1.3 mg/L (0.5 mmol/l final VPA); 14.4 ± 1.2 mg/L (1 mmol/l final VPA); 10.0 ± 0.9 mg/L (2 mmol/l final VPA). For the same compound, where the note is “3 mmol/l final VPA”, the Batch titer turned out to be 7.4 ± 1.2 mg/L. The optimal final concentration result (for batch titer, CHO DG44 cells, day 5) was “around 0.5 mmol/l”.

Values taken from US20090023186A1, “USE OF VALPROIC ACID FOR ENHANCING PRODUCTION OF RECOMBINANT PROTEINS IN MAMMALIAN CELLS” (EXCELLGENE SA, priority 2007, published 2009).
